The text below walks through data of article PMC12226733, “Evolution of iGluR ligand specificity, polyamine regulation, and ion selectivity inferred from a placozoan epsilon receptor” (Communications Biology, 2025).

Where “and” joins values, the source holds several entries; their conditions need not be identical. Identical values can stand only once. Entries after “also recorded” stand apart in the source; their conditions may differ. Like-named read-outs stand apart in the source and are kept apart here.

Experiment [1] has as its target T. adhaerens GluE1αA receptor (wildtype) (Trichoplax adhaerens, UniProt B3SAW0). In words: whole-cell patch clamp, agonist-evoked currents in CHO-K1 cells. The note with it: for normalized peak inward current, Avg / normalized peak inward current, single recording: wild type; for sensitivity to agonist: 1 mM. Format: cell-based.
Experiment [2] has as its system GluE1αA m1 variant (F732Y). The experiment is classed as cell-based, Trichoplax adhaerens. The note with it: m1; ligand 10 mM; normalized to glycine. The text has this:
(§1) As noted, a model has been put forward that defines iGluR ligand specificity based on a set of key amino acids in the LBD of iGluRs[11]. […] To the best of our knowledge, whether these few positions are indeed solely responsible for ligand specificity, and moreover, can be altered to switch specificity for natural ligands, has not been experimentally tested. […] We also created a triple mutant, with an additional phenylalanine to tyrosine mutation at position 732 (F732Y; m3 variant), to make the T. adhaerens epsilon receptor resemble GluN2A and GluA2 receptors from human, reasoning that this mutation might enhance glutamate sensitivity. We also generated a single F732Y mutant (m1 variant), to assess the contribution of this amino acid to ligand specificity in isolation.
(§2) The cDNA of the T. adhaerens GluE1αA receptor was cloned into the mammalian expression vector pIRES2-EGFP, using a 5’ nested primer that inserted a mammalian consensus Kozak sequence of […] (Supplementary Table 5). Several mutants/variants of this receptor where also prepared via site directed mutagenesis using standard procedures and primers listed in Supplementary Table 5. For electrophysiological comparisons, we commissioned GenScript (USA) to synthesize the cDNA of the human GluA2 […] receptor (NCBI accession number NP_001077088.2), which was cloned into the pIRES2-EGFP vector with a Kozak sequence flanking the start codon and restriction enzymes SalI and BamHI at the 5’ and 3’ ends of the cDNA, respectively. Receptor cDNAs in the various pIRES2 constructs were transfected into Chinese Hamster Ovary-K1 (CHO-K1; Sigma) cells cultured in Dulbecco’s Modified Eagle Medium Nutrient Mixture F-12 (DMEM/F12) supplemented with 10% Fetal Bovine Serum (FBS) and 1% penicillin-streptomycin at 37°C. Transfections were done with 2 μg of plasmid vector using the transfecting reagent PolyJet^TM (SignaGen Laboratories, USA) according to the manufacturer’s instructions and plated onto glass coverslips in 35 mm dishes the next day. Transfected cells were incubated at 28°C for 2 to 4 days, then coverslips were transferred to a new 60 mm dish with 5 mL of external recording solution. […] Agonists and pharmacological compounds used in this study were dissolved in corresponding external solutions. […] Patch pipettes were pulled using a P-1000 micropipette puller (Sutter, USA), from thick-walled borosilicate tubing (1.5 and 0.86 outer and inner diameter, respectively), to a resistance of between 1 and 6 megaohms.

For experiment [3], the system named is GluE1αA m2 variant (S653G, I655T). The experiment is classed as cell-based, Trichoplax adhaerens. The note with it: for normalized peak inward current, Avg / normalized peak inward current, single recording / normalized current (dose response), Avg / normalized current (dose response), single recording: m2.
Source text: as §1, §2

Experiment [4] relates to GluE1αA m3 variant (S653G, I655T, F732Y). The experiment is classed as cell-based, Trichoplax adhaerens. The note with it: for normalized peak inward current, Avg / normalized peak inward current, single recording / normalized current (dose response), Avg / normalized current (dose response), single recording: m3.
Source text: as §1, §2

The mark [5] stands for this setting: tested as a single mix each at 3 mM.
[6] abbreviates: ligand tested on its own at 10 mM.
Where [7] appears, read: ligand 10 mM, normalized to glycine.
[8] abbreviates: ligand 10 mM, normalized to glutamate.

T. adhaerens GluE1αA receptor (wildtype), sequence (B3SAW0 entry or part of it): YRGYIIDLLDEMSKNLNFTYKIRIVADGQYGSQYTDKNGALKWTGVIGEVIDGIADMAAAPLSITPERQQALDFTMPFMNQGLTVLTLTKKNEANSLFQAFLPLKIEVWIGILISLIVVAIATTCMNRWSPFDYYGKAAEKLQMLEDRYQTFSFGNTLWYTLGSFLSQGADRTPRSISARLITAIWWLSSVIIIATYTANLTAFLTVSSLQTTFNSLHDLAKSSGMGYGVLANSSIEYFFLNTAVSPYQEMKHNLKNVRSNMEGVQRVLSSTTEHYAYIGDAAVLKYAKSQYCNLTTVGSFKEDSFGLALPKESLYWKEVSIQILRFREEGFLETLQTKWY

With `N[C@@H](Cc1c[nH]cn1)C(=O)O` [histidine], in experiment [1] (setting [5]), the “activation of ligand-gated current” value is on record as “no responses”.

As for `N=C(N)NCCC[C@H](N)C(=O)O` [arginine], the “activation of ligand-gated current” value in experiment [1] (setting [6]) is listed as “no responses”.

For `N[C@@H](CCC(=O)O)C(=O)O` [glutamate], the “activation of ligand-gated current” value in experiment [1] (setting [6]) is “no responses”. Further, the “normalized peak inward current, Avg” value worked out at 0.0035 in experiment [1] (agonist 1 mM); 0.00871 in experiment [1] (setting [7]); 0.02 in experiment [2]; 0.76 in experiment [3] (agonist 1 mM); 1.00 in experiment [3] (setting [8]); 1.00 in experiment [4] (agonist 1 mM). Besides, the “normalized peak inward current, Avg” value in experiment [4] (setting [8]) worked out at 1.00. In addition, the “normalized peak inward current, single recording” value in experiment [3] (agonist 1 mM, listed as Glu) is 0.74 and 0.64 and 0.71 and 0.87 and 0.80; in experiment [3] (setting [8]) it was 1.00; in experiment [4] (agonist 1 mM, listed as Glu), 1.03 and 1.05 and 1.08 and 0.95 and 0.92 and 0.91; in experiment [4] (setting [8]) it was 1.00. The “normalized current (dose response), Avg” value in experiment [3] (glutamate 0.3 mM) was 0.0181; in experiment [3] (glutamate 1 mM), 0.22; in experiment [3] (glutamate 3 mM), 0.76; in experiment [3] (glutamate 10 mM) it was 0.98; in experiment [4] (glutamate 0.1 mM) it was 0.02; in experiment [4] (glutamate 0.3 mM) it was 0.16. Moreover, the results for the “normalized current (dose response), Avg” value in experiment [4] (glutamate 1 mM) and in experiment [4] (glutamate 3 mM) were 0.88 and 0.95, respectively. The “normalized current (dose response), single recording” value was 0.14 and 0.22 and 0.25 and 0.19 and 0.27 in experiment [3] (glutamate 1 mM); 0.66 and 0.88 and 0.67 and 0.63 and 0.98 and 0.72 in experiment [3] (glutamate 3 mM); 1.00 and 0.98 and 0.92 in experiment [3] (glutamate 10 mM); 0.14 and 0.12 and 0.11 and 0.13 and 0.20 and 0.16 and 0.19 in experiment [4] (glutamate 0.3 mM); 0.97 and 0.78 and 0.74 and 0.89 and 0.95 and 0.87 and 0.86 and 0.96 in experiment [4] (glutamate 1 mM); 0.98 and 0.83 and 1.00 and 0.87 in experiment [4] (glutamate 3 mM). For the same molecule, in experiment [3] (m2 variant, 1 mM), the sensitivity to agonist entry was “robust responses”. The EC50 was 1810 ± 200 µM in experiment [3] (m2 variant, dose response of normalized current) and 610 ± 60 µM in experiment [4] (m3 variant, dose response of normalized current).

As to `CSCC[C@H](N)C(=O)O` [methionine], in experiment [1], the “activation of ligand-gated current” value was “no responses”.

As for `CC(C)[C@H](N)C(=O)O` [valine], the “activation of ligand-gated current” value in experiment [1] (setting [6]) was “weakly”. Also, the “normalized peak inward current, Avg” value in experiment [1] (setting [7]) was found to be 0.35; in experiment [2], 0.0347; in experiment [3] (setting [8]), 0.00917; in experiment [4] (setting [8]), 0.0123. Moreover, the “normalized current (dose response), Avg” value in experiment [1] (wildtype, ligand 0.30 mM) came to 0.0282; in experiment [1] (wildtype, ligand 1.00 mM), 0.32; in experiment [1] (wildtype, ligand 3.00 mM) it was 0.83; in experiment [1] (wildtype, ligand 10.00 mM), 1.00; in experiment [1] (wildtype, ligand […]), 0.56. Also, the “normalized current (dose response), single recording” value is 0.85 and 0.78 and 0.82 and 0.89 and 0.92 and 0.71 and 0.81 and 0.88 in experiment [1] (wildtype, ligand 3.00 mM); 1.00 in experiment [1] (wildtype, ligand 10.00 mM).

As for `N[C@H](CO)C(=O)O` [D-serine], the “activation of ligand-gated current” value in experiment [1] (setting [6]) is on record as “activated”. For the same molecule, the “normalized peak inward current, Avg” value in experiment [1] (setting [7]) amounted to 0.95; in experiment [2], 0.76; in experiment [3] (setting [8]), 0.06; in experiment [4] (setting [8]) it was 0.19. Further, the “normalized peak inward current, single recording” value in experiment [1] (setting [7]) is 0.93 and 1.00 and 0.86 and 0.89; in experiment [2], 0.75 and 0.83 and 0.85 and 0.77 and 0.60; in experiment [3] (setting [8]), 0.0548 and 0.0529 and 0.07 and 0.06 and 0.05. Moreover, the “normalized current (dose response), Avg” value in experiment [1] (wildtype, ligand 0.03 mM) stood at 0.0178; in experiment [1] (wildtype, ligand 0.10 mM), 0.20; in experiment [1] (wildtype, ligand 0.30 mM), 0.78; in experiment [1] (wildtype, ligand 1.00 mM), 0.97. The “normalized current (dose response), single recording” value in experiment [1] (wildtype, ligand 0.30 mM) is 0.63 and 0.81 and 0.90 and 0.84 and 0.69 and 0.70; in experiment [1] (wildtype, ligand 1.00 mM) it was 1.00 and 0.99 and 0.87 and 0.90. Besides, the response in experiment [1] (wildtype, monophasic dose-response fit of normalized whole-cell current) was half-maximal at 190 ± 40 µM (EC50).

Turning to `N[C@@H](Cc1ccccc1)C(=O)O` [phenylalanine], in experiment [1] (setting [5]), the “activation of ligand-gated current” value is “no responses”.

As to `C[C@@H](O)[C@H](N)C(=O)O` [threonine], the “activation of ligand-gated current” value in experiment [1] (setting [6]) is given as “no responses”.

For the molecule `C=C(C)[C@H]1CN[C@H](C(=O)O)[C@H]1CC(=O)O` [kainate], the “normalized peak inward current, Avg” value in experiment [1] (agonist 1 mM) came out at 0.00265; in experiment [3] (agonist 1 mM), 0.00537; in experiment [4] (agonist 1 mM), 0.00374. In addition, the sensitivity to agonist entry in experiment [1] (wildtype) is listed as “insensitivity; also recorded: not sensitive”.

Regarding `N[C@@H](CC(=O)O)C(=O)O` [aspartate], the “activation of ligand-gated current” value in experiment [1] (setting [6]) is reported as “no responses”.

Regarding `CN[C@H](CC(=O)O)C(=O)O` [NMDA, N-methyl-D-aspartate], the “normalized peak inward current, Avg” value in experiment [1] (agonist 1 mM) is reported as 0.00229; in experiment [3] (agonist 1 mM), 0.0107; in experiment [4] (agonist 1 mM) it was 0.00471. The sensitivity to agonist entry in experiment [1] (wildtype) is “insensitivity; also recorded: not sensitive”.

Regarding `Cc1onc(O)c1CC(N)C(=O)O` (stereo not drawn) [AMPA, α-amino-3-hydroxy-5-methyl-4-isoxazolepropionic acid], the figures for the “normalized peak inward current, Avg” value in experiment [1] (agonist 1 mM), in experiment [3] (agonist 1 mM) and in experiment [4] (agonist 1 mM) were 0.00463, 0.00676 and 0.36, respectively. In addition, the sensitivity to agonist result is on record as “insensitivity; also recorded: not sensitive” in experiment [1] (wildtype) and “moderate responses; also recorded: sensitive” in experiment [4] (m3 variant, 1 mM). Further, the “normalized peak inward current, single recording” value in experiment [4] (agonist 1 mM) was 0.33 and 0.26 and 0.30 and 0.41 and 0.44 and 0.43. In addition, the “peak amplitude relative to current elicited by 1 mM glutamate” value in experiment [4] (m3 variant, 1 mM AMPA, slow desensitizing currents) was “roughly 36%”.

As to `N[C@@H](Cn1oc(=O)[nH]c1=O)C(=O)O` [quisqualate], the “normalized peak inward current, Avg” value in experiment [1] (agonist 1 mM) came out at 0.00248; in experiment [3] (agonist 1 mM), 0.00939; in experiment [4] (agonist 1 mM) it was 0.01. Also, the sensitivity to agonist result in experiment [1] (wildtype) was “not sensitive”.

For the molecule `N[C@@H](CO)C(=O)O` [L-serine], in experiment [1] (setting [6]), the “activation of ligand-gated current” value is reported as “activated”. The “normalized peak inward current, Avg” value in experiment [1] (setting [7]) was 0.94; in experiment [2] it was 1.05; in experiment [3] (setting [8]), 0.20; in experiment [4] (setting [8]), 0.07. For the same molecule, the “normalized peak inward current, single recording” value was 1.00 and 0.98 and 0.94 and 0.78 and 0.93 and 0.97 in experiment [1] (setting [7]); 1.18 and 1.01 and 1.00 and 1.05 in experiment [2]; 0.17 and 0.18 and 0.24 and 0.27 in experiment [3] (setting [8]). In addition, the “normalized current (dose response), Avg” value in experiment [1] (wildtype, ligand 0.03 mM) is 0.017; in experiment [1] (wildtype, ligand 0.10 mM) it was 0.35; in experiment [1] (wildtype, ligand 0.30 mM), 0.95; in experiment [1] (wildtype, ligand 1.00 mM) it was 1.00; in experiment [1] (wildtype, ligand […]) it was 0.63. The “normalized current (dose response), single recording” value in experiment [1] (wildtype, ligand 0.30 mM) is 1.00 and 0.97 and 0.95 and 0.77 and 0.99; in experiment [1] (wildtype, ligand 1.00 mM) it was 0.99 and 1.00 and 0.98.

Turning to `CC[C@H](C)[C@H](N)C(=O)O` [isoleucine], the “activation of ligand-gated current” value in experiment [1] (setting [5]) was “no responses”.

`NCCCC[C@H](N)C(=O)O` [lysine]: in experiment [1] (setting [5]), the “activation of ligand-gated current” value is reported as “no responses”.

With `CC(C)C[C@H](N)C(=O)O` [leucine], the “activation of ligand-gated current” value in experiment [1] (setting [5]) is recorded as “no responses”.

For `C[N+](C)(C)CC(=O)O` [betaine], the “activation of ligand-gated current” value in experiment [1] (setting [6]) is “no responses”.
